Assay results: patent US20080287479A1, “INHIBITORS OF SERINE PALMITOYLTRANSFERASE” (Pfizer Inc, priority 2006, published 2008)
Structures can show the parent of a compound that is named as a salt. Where two headings read alike, the source gives them in different places.

Molecular target: T1, Serine Palmitoyl Transferase (SPT); microsomes from HEK 293 cells stably transfected with human LCB2 subunit of SPT (Homo sapiens, UniProt O15270)
T1 construct: expressed in transfected cells; host or cells: HEK 293 cells stably transfected with LCB2; microsomal fraction
T1 sequence (O15270 1-562): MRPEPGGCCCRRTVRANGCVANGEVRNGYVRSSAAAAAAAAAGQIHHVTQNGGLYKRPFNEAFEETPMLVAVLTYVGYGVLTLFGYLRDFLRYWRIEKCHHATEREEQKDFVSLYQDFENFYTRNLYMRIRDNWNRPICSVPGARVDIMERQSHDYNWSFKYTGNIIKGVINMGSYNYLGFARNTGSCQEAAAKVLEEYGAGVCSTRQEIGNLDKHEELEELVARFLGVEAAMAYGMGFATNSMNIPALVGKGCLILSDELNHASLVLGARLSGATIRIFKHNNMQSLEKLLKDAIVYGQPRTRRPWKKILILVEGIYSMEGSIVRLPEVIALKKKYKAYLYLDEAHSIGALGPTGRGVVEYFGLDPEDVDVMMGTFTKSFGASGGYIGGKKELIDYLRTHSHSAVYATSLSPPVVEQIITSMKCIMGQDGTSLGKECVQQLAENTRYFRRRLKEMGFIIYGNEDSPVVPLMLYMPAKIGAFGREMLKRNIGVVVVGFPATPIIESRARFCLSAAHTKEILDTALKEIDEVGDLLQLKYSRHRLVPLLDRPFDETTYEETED
T1 sequence (O15269 1-473 partner): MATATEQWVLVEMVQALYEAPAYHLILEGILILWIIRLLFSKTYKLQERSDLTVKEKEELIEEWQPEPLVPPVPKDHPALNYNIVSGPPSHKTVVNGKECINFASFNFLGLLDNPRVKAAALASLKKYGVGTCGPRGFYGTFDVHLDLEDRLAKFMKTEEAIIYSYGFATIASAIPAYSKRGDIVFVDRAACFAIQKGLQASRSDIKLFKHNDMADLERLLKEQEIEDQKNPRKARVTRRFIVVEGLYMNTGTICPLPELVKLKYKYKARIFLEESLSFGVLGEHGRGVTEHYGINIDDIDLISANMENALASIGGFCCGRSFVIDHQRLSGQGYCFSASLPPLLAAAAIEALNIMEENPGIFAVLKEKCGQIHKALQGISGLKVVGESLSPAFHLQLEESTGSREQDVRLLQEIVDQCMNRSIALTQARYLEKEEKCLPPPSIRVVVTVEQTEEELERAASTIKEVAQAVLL
T1 sequence (Q969W0 1-71 partner): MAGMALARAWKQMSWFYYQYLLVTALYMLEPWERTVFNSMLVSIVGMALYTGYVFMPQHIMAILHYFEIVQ
Experiment: SPT flashplate assay
Type: biochemical

[1] = microsomes of HEK 293 LCB2 cells, 3H-serine and palmitoyl CoA, phospholipid coated flashplate, 18-24 hours at room temperature, read-out: SPTISF IC50

`COC1(C)CCC(C(=O)CN2CCC(n3c(=O)[nH]c4cc(S(C)(=O)=O)ccc43)CC2)CC1` (stereo not drawn) [Example 47, 1-{1-[2-(4-methoxy-4-methylcyclohexyl)-2-oxoethyl]piperidin-4-yl}-5-(methylsulfonyl)-1,3-dihydro-2H-benzimidazol-2-one] showed an IC50 [1] of 508 nM.
`CC1(C(=O)CN2CCC(n3c(=O)[nH]c4cc(S(C)(=O)=O)ccc43)CC2)CCCCC1` [Example 48, 1-{1-[2-(1-methylcyclohexyl)-2-oxoethyl]piperidin-4-yl}-5-(methylsulfonyl)-1,3-dihydro-2H-benzimidazol-2-one] showed an IC50 [1] of 4400 nM.
Molecule `CNC(=O)c1cc2[nH]c(=O)n(C3CCN(CC(=O)C4CCCCC4)CC3)c2cc1F` [Example 11, 1-[1-(2-cyclohexyl-2-oxoethyl)piperidin-4-yl]-6-fluoro-N-methyl-2-oxo-2,3-dihydro-1H-benzimidazole-5-carboxamide] has an IC50 [1] of 63 nM.
With `CNC(=O)c1cc2[nH]c(=O)n(C3CC4CCC(C3)N4CC(=O)N3CCC(C)(OC)CC3)c2cc1F` (stereo not drawn) [Example 49, 6-fluoro-1-{8-[2-(4-methoxy-4-methylpiperidin-1-yl)-2-oxoethyl]-8-azabicyclo[3.2.1]oct-3-yl}-N-methyl-2-oxo-2,3-dihydro-1H-benzimidazole-5-carboxamide trifluloroacetate] the IC50 [1] was 165 nM.
Work on `CC1CCC(C(=O)CN2CCC(n3c(=O)[nH]c4cc(S(C)(=O)=O)ccc43)CC2)CC1` (stereo not drawn) [Example 42, 1-{1-[2-(4-methylcyclohexyl)-2-oxoethyl]piperidin-4-yl}-5-(methylsulfonyl)-1,3-dihydro-2H-benzimidazol-2-one] yielded an IC50 [1] of 59 nM.
`CNC(=O)c1ccc2c(c1)CC(=O)N2C1CCN(CC(=O)N2C[C@H]3CCC[C@H]3C2)CC1` [Example 20, 1-{2-[(3aR,6aS)-hexahydrocyclopenta[c]pyrrol-2(1H)-yl]-2-oxoethyl}-4-{5-[(methylamino)carbonyl]-2-oxo-2,3-dihydro-1H-indol-1-yl}piperidinium hydrogen sulfate] gave an IC50 (SPTISF IC50 (nM)) of 11.4 nM.
In the case of `CNC(=O)c1cc2[nH]c(=O)n(C3CCN(CC(=O)C4(C)CCCCC4)CC3)c2cc1F` [Example 17, 6-fluoro-N-methyl-1-{1-[2-(1-methylcyclohexyl)-2-oxoethyl]piperidin-4-yl}-2-oxo-2,3-dihydro-1H-benzimidazole-5-carboxamide], the IC50 [1] is reported as 7.14 nM.
In the case of `COC1(C)CCN(C(=O)CN2CCC(n3c(=O)[nH]c4cc(C(C)=O)ccc43)CC2)CC1` [Example 55, 5-acetyl-1-{1-[2-(4-methoxy-4-methylpiperidin-1-yl)-2-oxoethyl]piperidin-4-yl}-1,3-dihydro-2H-benzimidazol-2-one; HCl salt], the IC50 [1] is reported as 71 nM.
`CNC(=O)c1cc2[nH]c(=O)n(C3CCN(CC(=O)C4CCC(C)(OC)CC4)CC3)c2cc1F` (stereo not drawn) [Example 16, 6-fluoro-1-{1-[2-(4-methoxy-4-methylcyclohexyl)-2-oxoethyl]piperidin-4-yl}-N-methyl-2-oxo-2,3-dihydro-1H-benzimidazole-5-carboxamide] showed an IC50 [1] of 53 nM.
